In US20070054884A1 (priority 2005, published 2007):
Values after ≈ are worked out from the molar mass of the structure shown.

Experiments:
B.anthracis V770-NR1-R = assay: microbe, parasite or virus in culture; format: cell-based; details: Bacillus anthracis, V770NR1R, read-out: MIC B.anthracis V770-NR1-R
S. aureus 29213 = assay: Minimum Inhibitory Concentration (MIC), broth dilution method; format: cell-based; details: Staphylococcus aureus, 29213, read-out: MIC S. aureus 29213
Procedure: (§1) Minimum Inhibitory Concentration (MIC), Broth Dilution Method:
(§2) The compounds of the present invention were tested against selected Gram positive and Gram negative organisms using standard microtitration techniques well known to those skilled in the art. Cultures of bacteria were initially applied by streaking a loopful onto agar plates under the appropriate conditions. For example, bacterial stocks are streaked for isolation of single colonies onto chocolate agar and then incubated for 18 hours at 35-37° C. in a 5% CO2 incubator. Five to ten colonies were picked from the chocolate agar plate for subculture to Brain-Heart infusion (BHI) broth, Mueller Hinton broth, or BHI containing 4% serum, and incubated under the appropriate conditions. The ability of the test compound to act as an antimicrobial was determined by the ability of dilutions of the test substance to inhibit bacterial growth in vitro. The optical density of the culture of organisms in the presence of an active compound was compared to the optical density of the same organism grown without test compound. The activity of the compounds is described as either negative or the lowest concentration inhibiting growth (Minimum Inhibitory Concentration [MIC]).
(§3) The activity of selected compounds of the present invention against representative Gram positive and Gram negative bacteria are shown in the following Table 1.

B. cereus = assay: as above; format: cell-based; details: Bacillus cereus, read-out: MIC B. cereus
Procedure: as §1, §2, §3

S. pneumoniae 11733 = assay: as above; format: cell-based; details: Streptococcus pneumoniae, 11733, read-out: MIC S. pneumoniae 11733
Procedure: as §1, §2, §3

SMILES	MIC (B.anthracis V770-NR1-R)	MIC (S. aureus 29213)	MIC (B. cereus)	MIC (S. pneumoniae 11733)	melting point
Cc1cc(O)c(Oc2ccccc2C#N)cc1-c1ccco1 [Example 28, 2-(5-Furan-2-yl-2-hydroxy-4-methyl-phenoxy)-benzonitrile]	800 µg/mL (≈ 2.75 mM)	2000 µg/mL (≈ 6.87 mM)	1600 µg/mL (≈ 5.49 mM)	500 µg/mL (≈ 1.72 mM)	
O=C(O)c1cc(Oc2ccc(Cl)cc2Cl)c(O)cc1Cl					192 to 196 °C
O=C(Nc1cc(Oc2ccc(Cl)cc2Cl)c(O)cc1Cl)c1ccco1 [Example 20, Furan-2-carboxylic acid [2-chloro-5-(2,4-dichloro-phenoxy)-4-hydroxy-phenyl]-amide]	> 25000 µg/mL	4000 µg/mL (≈ 10 mM)	> 25000 µg/mL	2000 µg/mL (≈ 5.02 mM)	
Oc1cc(Cl)c(N2CCOCC2)cc1Oc1ccc(Cl)cc1Cl [Example 1, 5-Chloro-2-(2,4-dichlorophenoxy)-4-morpholin-4-yl-phenol]	1600 µg/mL (≈ 4.27 mM)	500 µg/mL (≈ 1.33 mM)	800 µg/mL (≈ 2.14 mM)	1000 µg/mL (≈ 2.67 mM)	187 to 188 °C
CCOC(=O)NC(=S)Nc1cc(Oc2ccc(Cl)cc2Cl)c(O)cc1Cl [Example 7]	1600 µg/mL (≈ 3.67 mM)	2000 µg/mL (≈ 4.59 mM)	800 µg/mL (≈ 1.84 mM)	31300 µg/mL (≈ 71.8 mM)	170 to 172 °C
N/C(=N/O)c1cc(Oc2ccc(Cl)cc2Cl)c(O)cc1Cl [Example 34, 2-Chloro-5-(2,4-dichloro-phenoxy)-4,N-dihydroxy-benzamidine]	200 µg/mL (≈ 0.575 mM)	100 µg/mL (≈ 0.288 mM)	100 µg/mL (≈ 0.288 mM)		137 °C
Oc1cc(Cl)c(-c2nnn[nH]2)cc1Oc1ccc(Cl)cc1Cl [Example 33, 5-Chloro-2-(2,4-dichloro-phenoxy)-4-(1H-tetrazol-5-yl)-phenol]	12500 µg/mL (≈ 35 mM)	200 µg/mL (≈ 0.559 mM)	6200 µg/mL (≈ 17.3 mM)		174 to 180 °C
Oc1cc(Cl)c(-n2cccc2)cc1Oc1ccc(Cl)cc1Cl [Example 17, 5-Chloro-2-(2,4-dichloro-phenoxy)-4-pyrrol-1-yl-phenol]	100 µg/mL (≈ 0.282 mM)	250 µg/mL (≈ 0.705 mM)	50 µg/mL (≈ 0.141 mM)		86 to 87 °C
COc1ccc(NC(=S)Nc2cc(Oc3ccc(Cl)cc3Cl)c(O)cc2Cl)cc1 [Example 11, 1-[2-Chloro-5-(2,4-dichloro-phenoxy)-4-hydroxy-phenyl]-3-(4-methoxy-phenyl)-thiourea]		7900 µg/mL (≈ 16.8 mM)		31300 µg/mL (≈ 66.6 mM)	
Cc1nnsc1C(=O)Nc1cc(Oc2ccc(Cl)cc2Cl)c(O)cc1Cl [Example 21, 4-Methyl-[1,2,3]thiadiazole-5-carboxylic acid [2-chloro-5-(2,4-dichloro-phenoxy)-4-hydroxy-phenyl]-amide]		4000 µg/mL (≈ 9.29 mM)		4000 µg/mL (≈ 9.29 mM)	
Oc1cc(Cl)c(-n2cnnn2)cc1Oc1ccc(Cl)cc1Cl [Example 32, 5-Chloro-2-(2,4-dichloro-phenoxy)-4-tetrazol-1-yl-phenol]	800 µg/mL (≈ 2.24 mM)	1600 µg/mL (≈ 4.47 mM)	1300 µg/mL (≈ 3.64 mM)	3100 µg/mL (≈ 8.67 mM)	147 to 148 °C
Cc1cc(O)c(Oc2ccccc2C#N)cc1-n1cccc1 [Example 29, 2-(2-Hydroxy-4-methyl-5-pyrrol-1-yl-phenoxy)-benzonitrile]		62500 µg/mL (≈ 215 mM)	4000 µg/mL (≈ 13.8 mM)	500 µg/mL (≈ 1.72 mM)	158 to 160 °C
O=C(Nc1cc(C(F)(F)F)cc(C(F)(F)F)c1)Nc1cc(Oc2ccc(Cl)cc2Cl)c(O)cc1Cl [Example 15, 1-(3,5-Bis-trifluoromethyl-phenyl)-3-[2-chloro-5-(2,4-dichloro-phenoxy)-4-hydroxy-phenyl]-urea]	800 µg/mL (≈ 1.43 mM)	4000 µg/mL (≈ 7.15 mM)	100 µg/mL (≈ 0.179 mM)		
Cc1cc(C(=O)Nc2cc(Oc3ccc(Cl)cc3Cl)c(O)cc2Cl)no1 [Example 22, 5-Methyl-isoxazole-3-carboxylic acid [2-chloro-5-(2,4-dichloro-phenoxy)-4-hydroxy-phenyl]-amide]		2000 µg/mL (≈ 4.84 mM)		500 µg/mL (≈ 1.21 mM)	
Oc1cc(Cl)c(NC(=S)Nc2cc(C(F)(F)F)cc(C(F)(F)F)c2)cc1Oc1ccc(Cl)cc1Cl [Example 16, 1-(3,5-Bis-trifluoromethyl-phenyl)-3-[2-chloro-5-(2,4-dichloro-phenoxy)-4-hydroxy-phenyl]-thiourea]	200 µg/mL (≈ 0.347 mM)	500 µg/mL (≈ 0.868 mM)	100 µg/mL (≈ 0.174 mM)		
Cc1cc(O)c(Oc2ccccc2C#N)cc1-c1ccsc1 [Example 27, 2-(2-Hydroxy-4-methyl-5-thiophen-3-yl-phenoxy)-benzonitrile]	1600 µg/mL (≈ 5.21 mM)	6200 µg/mL (≈ 20.2 mM)	800 µg/mL (≈ 2.6 mM)	> 25000 µg/mL	

SMILES	MIC (B.anthracis V770-NR1-R)	MIC (S. aureus 29213)	MIC (B. cereus)	MIC (S. pneumoniae 11733)	melting point
Cc1cc(O)c(Oc2ccccc2C#N)cc1N1CCOCC1 [Example 31, 2-(2-Hydroxy-4-methyl-5-morpholin-4-yl-phenoxy)-benzonitrile]	6200 µg/mL (≈ 20 mM)	7900 µg/mL (≈ 25.5 mM)	3100 µg/mL (≈ 9.99 mM)	4000 µg/mL (≈ 12.9 mM)	
OB(O)c1cc(Oc2ccc(Cl)cc2Cl)c(O)cc1Cl [Example 6, 2-Chloro-5-(2,4-dichloro-phenoxy)-4-hydroxy-phenylboronic acid]		500 µg/mL (≈ 1.5 mM)			180 to 183 °C
O=C(O)c1nc(-c2cc(Oc3ccc(Cl)cc3Cl)c(O)cc2Cl)no1 [Example 36, 3-[2-Chloro-5-(2,4-dichloro-phenoxy)-4-hydroxy-phenyl]-[1,2,4]oxadiazole-5-carboxylic acid]	50 µg/mL (≈ 0.125 mM)	200 µg/mL (≈ 0.498 mM)	100 µg/mL (≈ 0.249 mM)		115 °C
CCOC(=O)NC(=S)Nc1ccc(O)c(Oc2ccccc2O)c1 [Example 9, 1-[4-Hydroxy-3-(2-hydroxy-phenoxy)-phenyl]-3-(ethylozycarbonyl)thiourea]	3100 µg/mL (≈ 8.9 mM)	31300 µg/mL (≈ 89.8 mM)	12500 µg/mL (≈ 35.9 mM)	62500 µg/mL (≈ 179 mM)	
Oc1cc(Cl)c(NC(=S)NC2CCCCC2)cc1Oc1ccc(Cl)cc1Cl [Example 12, 1-[2-Chloro-5-(2,4-dichloro-phenoxy)-4-hydroxy-phenyl]-3-cyclohexyl-thiourea]		2000 µg/mL (≈ 4.49 mM)		31300 µg/mL (≈ 70.2 mM)	
Cc1cc(O)c(Oc2ccccc2C#N)cc1-c1cccs1 [Example 26, 2-(2-Hydroxy-4-methyl-5-thiophen-2-yl-phenoxy)-benzonitrile]	12500 µg/mL (≈ 40.7 mM)	4000 µg/mL (≈ 13 mM)	12500 µg/mL (≈ 40.7 mM)	500 µg/mL (≈ 1.63 mM)	
N#Cc1cc(Cl)ccc1Oc1cc(N2CCOCC2)c(F)cc1O					149 to 151 °C
CN1CCN(c2cc(Oc3ccc(Cl)cc3Cl)c(O)cc2Cl)CC1 [Example 2, 5-Chloro-2-(2,4-dichloro-phenoxy)-4-(4-methyl-piperazin-1-yl)-phenol]	> 25000 µg/mL	60 µg/mL (≈ 0.155 mM)	> 25000 µg/mL	250 µg/mL (≈ 0.645 mM)	
CCOC(=O)c1nc(-c2cc(Oc3ccc(Cl)cc3Cl)c(O)cc2Cl)no1 [Example 35, 3-[2-Chloro-5-(2,4-dichloro-phenoxy)-4-hydroxy-phenyl][1,2,4]oxadiazole-5-carboxylic acid ethyl ester]	100 µg/mL (≈ 0.233 mM)	200 µg/mL (≈ 0.466 mM)	100 µg/mL (≈ 0.233 mM)		130 °C
Oc1cc(Cl)c(-c2cccs2)cc1Oc1ccc(Cl)cc1Cl [Example 3, 5-Chloro-2-(2,4-dichloro-phenoxy)-4-thiophen-2-yl-phenol]	50 µg/mL (≈ 0.135 mM)	60 µg/mL (≈ 0.161 mM)	50 µg/mL (≈ 0.135 mM)	10 µg/mL (≈ 0.0269 mM)	
N#Cc1ccccc1Oc1cc(-n2cccc2)ccc1O [Example 18, 2-(2-Hydroxy-5-pyrrol-1-yl-phenoxy)-benzonitrile]	> 25000 µg/mL	4000 µg/mL (≈ 14.5 mM)	> 25000 µg/mL	4000 µg/mL (≈ 14.5 mM)	
Oc1cc(Cl)c(-c2ccsc2)cc1Oc1ccc(Cl)cc1Cl [Example 5, 5-Chloro-2-(2,4-dichloro-phenoxy)-4-thiophen-3-yl-phenol]	400 µg/mL (≈ 1.08 mM)	130 µg/mL (≈ 0.35 mM)	200 µg/mL (≈ 0.538 mM)	10 µg/mL (≈ 0.0269 mM)	
O=[N+]([O-])c1ccc(NC(=S)Nc2cc(Oc3ccc(Cl)cc3Cl)c(O)cc2Cl)cc1 [Example 13, 1-[2-Chloro-5-(2,4-dichloro-phenoxy)-4-hydroxy-phenyl]-3-(4-nitro-phenyl)-thiourea]		1000 µg/mL (≈ 2.06 mM)		15600 µg/mL (≈ 32.2 mM)	
Oc1cc(Cl)c(-c2ccco2)cc1Oc1ccc(Cl)cc1Cl [Example 4, 5-Chloro-2-(2,4-dichloro-phenoxy)-4-furan-2-yl-phenol]		500 µg/mL (≈ 1.41 mM)		500 µg/mL (≈ 1.41 mM)	
CC(=O)Nc1nc(C)c(S(=O)(=O)Nc2cc(Oc3ccc(Cl)cc3Cl)c(O)cc2Cl)s1 [Example 23, N-{5-[2-Chloro-5-(2,4-dichloro-phenoxy)-4-hydroxy-phenylsulfamoyl]-4-methyl-thiazol-2-yl}-acetamide]		4000 µg/mL (≈ 7.65 mM)		15700 µg/mL (≈ 30 mM)	
Oc1cc(Cl)c(NC(=S)Nc2ccc(F)cc2)cc1Oc1ccc(Cl)cc1Cl [Example 10, 1-[2-Chloro-5-(2,4-dichloro-phenoxy)-4-hydroxy-phenyl]-3-(4-fluoro-phenyl)-thiourea]	1600 µg/mL (≈ 3.5 mM)	4000 µg/mL (≈ 8.74 mM)	400 µg/mL (≈ 0.874 mM)	31300 µg/mL (≈ 68.4 mM)	89 to 91 °C
